The conditions of series [1]: human subjects; cited from earlier work.
A further series can be described thus: in vivo. The following applies: rat, 50 ug/kg/d; for level at 672 h: Plasma amylin. On the procedure:
Amylin infusion to lean or obese, diabetic ZDF rats. Obese diabetic female ZDF rats (Charles River Laboratories) were maintained on 32% kcal/fat purified diet for approximately 6 weeks, and at 10 weeks of age were sorted into two weight-matched groups. One group was subjected to a bilateral ovariectomy (n=12) or SHAM surgery (n=12). Two weeks post-surgery rats were implanted with a single osmotic minipump (Alzet model 2ML4, Durect Corporation) delivering either vehicle or rat amylin (50 ug/kg/d) to half of each surgical group for 28 days. Lean (mean body weight 226±3 g) ZDF controls (Charles River) maintained on standard laboratory rodent chow (LM-485, 5% kcal/fat; Harlan Teklad) were sorted into weight-matched groups and implanted with a single osmotic minipump (Alzet model 2ML4, Durect Corporation) delivering either vehicle (n=9) or rat amylin (50 ug/kg/d; n=9) for 28 days. For both studies food intake and body weight were monitored weekly, and body composition was assessed at baseline and termination using NMR (Echo Medical Systems). After 28 days rats were euthanized by isoflurane overdose and cardiac blood collected.
Plasma metabolite analyses. Terminal plasma insulin (Crystal Chem Inc., Downer's Grove, Ill.), and leptin, total adiponectin and total ghrelin (Millipore, Billerica, […].) levels were measured using commercially available ELISA. Plasma glucose, triglyceride, and total cholesterol levels were measured using an Olympus bioanalyzer (Olympus America Diagnostics, Center Valley, Pa.). Plasma amylin levels were measured using an internal IEMA.

For series [2] the following is noted: DIO rats, leptin dose alone; cited from earlier work.

On to `CC[C@H](C)[C@H](NC(=O)[C@@H]1CCCN1C(=O)CNC(=O)[C@H](Cc1ccccc1)NC(=O)[C@H](CC(N)=O)NC(=O)[C@H](CC(N)=O)NC(=O)[C@H](CO)NC(=O)[C@H](CO)NC(=O)[C@H](Cc1c[nH]cn1)NC(=O)[C@@H](NC(=O)[C@H](CC(C)C)NC(=O)[C@H](Cc1ccccc1)NC(=O)[C@H](CC(N)=O)NC(=O)[C@H](C)NC(=O)[C@H](CC(C)C)NC(=O)[C@H](CCCNC(=N)N)NC(=O)[C@H](CCC(N)=O)NC(=O)[C@@H](NC(=O)[C@H](C)NC(=O)[C@@H]1CSSC[C@H](NC(=O)[C@@H](N)CCCCN)C(=O)N[C@@H](CC(N)=O)C(=O)N[C@@H]([C@@H](C)O)C(=O)N[C@@H](C)C(=O)N[C@@H]([C@@H](C)O)C(=O)N1)[C@@H](C)O)C(C)C)C(=O)N[C@@H](CC(C)C)C(=O)N1CCC[C@H]1C(=O)N1CCC[C@H]1C(=O)N[C@H](C(=O)N[C@@H](CC(N)=O)C(=O)N[C@H](C(=O)NCC(=O)N[C@@H](CO)C(=O)N[C@@H](CC(N)=O)C(=O)N[C@H](C(=O)N[C@@H](Cc1ccc(O)cc1)C(N)=O)[C@@H](C)O)C(C)C)[C@@H](C)O` [pramlintide], for which, in series [1], the “Food intake and body weight” value is “reduced food intake and body weight”.

Regarding `CC(C)C[C@H](NC(=O)[C@H](CC(N)=O)NC(=O)[C@H](CC(N)=O)NC(=O)[C@H](CO)NC(=O)[C@H](CO)NC(=O)[C@H](CCCNC(=N)N)NC(=O)[C@@H](NC(=O)[C@H](CC(C)C)NC(=O)[C@H](Cc1ccccc1)NC(=O)[C@H](CC(N)=O)NC(=O)[C@H](C)NC(=O)[C@H](CC(C)C)NC(=O)[C@H](CCCNC(=N)N)NC(=O)[C@H](CCC(N)=O)NC(=O)[C@@H](NC(=O)[C@H](C)NC(=O)[C@@H]1CSSC[C@H](NC(=O)[C@@H](N)CCCCN)C(=O)N[C@@H](CC(N)=O)C(=O)N[C@@H]([C@@H](C)O)C(=O)N[C@@H](C)C(=O)N[C@@H]([C@@H](C)O)C(=O)N1)[C@@H](C)O)C(C)C)C(=O)NCC(=O)N1CCC[C@H]1C(=O)N[C@H](C(=O)N[C@@H](CC(C)C)C(=O)N1CCC[C@H]1C(=O)N1CCC[C@H]1C(=O)N[C@H](C(=O)N[C@@H](CC(N)=O)C(=O)N[C@H](C(=O)NCC(=O)N[C@@H](CO)C(=O)N[C@@H](CC(N)=O)C(=O)N[C@H](C(=O)N[C@@H](Cc1ccc(O)cc1)C(N)=O)[C@@H](C)O)C(C)C)[C@@H](C)O)C(C)C` [rat amylin], the level at 672 h in the series “in vivo” (ZDF (lean controls)) was 3.43 ± 0.392 ng/mL; in the series “in vivo” (female, ZDF (obese diabetic)) it was 3.45 ± 0.401 ng/mL. Further, the Plasma amylin in “in vivo” (female, ZDF (obese diabetic), 672 h) worked out at 3279 ± 430 pg/mL.

B1: leptin (protein, UniProt P50596 22-167, looked up)
Leptin: VPIHKVQDDTKTLIKTIVTRINDISHTQSVSARQRVTGLDFIPGLHPILSLSKMDQTLAVYQQILTSLPSQNVLQIAHDLENLRDLLHLLAFSKSCSLPQTRGLQKPESLDGVLEASLYSTEVVALSRLQGSLQDILQQLDLSPEC
notes: long term signal of adiposity; acts synergistically with amylin in DIO rats
On to B1, for which the Reducing body weight entry in series [2] was “ineffective”.

The record behind these values is US20120071401A1, “AMYLIN AGONIST COMPOUNDS FOR ESTROGEN-DEFICIENT MAMMALS” (Amylin Pharamaceuticals, Inc., priority 2009, published 2012).
